Results reported in patent US20260256144A1, “FUNGICIDAL MIXTURE COMPOSITION COMPRISING SULPHUR” (ADAMA MAKHTESHIM LTD., priority 2022, published 2026).

Key:
Zymoseptoria tritici = experiment: Wheat yield increase when applied for Zymoseptoria tritici control; assay type: in vivo
Experimental: (§1) The experiments were conducted by applying commercially available formulations of Sulphur and other mixture partners, alone or with their tank-mixed compositions. The compositions were diluted with water.
(§2) Each formulation with active ingredient is diluted with water and biological efficacy trials on target fungi are conducted.

[1] = test system: Colletotrichum gloeosporioides; experiment: Activity against Colletotrichum gloeosporioides in plates; assay type: cell-based
Experimental: (§3) Colby's method is used to determine if synergy exists for a combination of active ingredients. According to Colby, the expected action (E) of active ingredients A+B is: [formula] • where E=expected efficacy, A and B=the efficacy of two active ingredients A and B at a given dose. When the percentage of control observed (O) for the combination is greater than the expected (E) percentage, there is a synergistic effect. The synergism ratio (R) is calculated as the ratio between the expected values and observed values. […] The compositions were diluted with water. Each formulation with active ingredient is diluted with water and biological efficacy trials on target fungi are conducted.

Ramularia collo-cygni = experiment: Activity against Ramularia collo-cygni in plates; assay type: cell-based
Experimental: as §3

Venturia inaequalis [2] = experiment: Apple fruits classes of damage for Venturia inaequalis control; assay type: in vivo; settings: 14 days after last application; for Class 1 (%): class 1 = no damage; for Class 2 (%): class 2 = 2-3 spots per fruit; for Class 3 (%): class 3 = more than 3 spots per fruit
Experimental: The fungicidal compounds A (sulphur) and B (mix partner) are formulated as equivalent compositions to eliminate the effects of differing formulation inerts on biological activity. Efficacy of the fungicidal compositions is evaluated with reference to a scale of 0% to 100% in comparison with untreated control plots. 0 means no control and 100 means complete control of the target disease.
as §1, §2

Alternaria solani = experiment: Activity against Alternaria solani in plates; assay type: cell-based
Experimental: as §3

Venturia inaequalis [3] = experiment: Sulphur + Difenoconazole on apple fruits incidence for Venturia inaequalis control; assay type: in vivo; settings: 4 days after last application
Experimental: as §3

Botrytis cinerea = experiment: Activity against Botrytis cinerea in plates; assay type: cell-based
Experimental: as §3

Tetranychus urticae = experiment: Activity of Sulphur + Fluazinam against Tetranychus urticae in plates; assay type: in vivo
Experimental: (§4) Colby's method is used to determine if synergy exists for a combination of active ingredients. According to Colby, the expected action (E) of active ingredients A+B is:
(§5) [formula] • where E=expected efficacy, A and B=the efficacy of two active ingredients A and B at a given dose.
(§6) When the percentage of control observed (O) for the combination is greater than the expected (E) percentage, there is a synergistic effect. The synergism ratio (R) is calculated as the ratio between the expected values and observed values.
(§7) Furthermore, the miticidal and insecticidal efficacy of the compositions are also evaluated with reference to a scale of 0% to 100% in comparison with untreated control plots. 0 means no control and 100 means complete control of the target pest.
as §1
(§8) Each formulation with active ingredient is diluted with water and biological efficacy trials on target pest are conducted.

[4] = test system: Trialeurodes vaporariorum; experiment: Activity of Sulphur + Fluazinam against Trialeurodes vaporariorum plates; assay type: in vivo
Experimental: as §4, §5, §6, §7, §1, §8

CC1COC(Cn2cncn2)(c2ccc(Oc3ccc(Cl)cc3)cc2Cl)O1 (centres unmarked) [Difenoconazole]
Yield increase versus the untreated (%) (Zymoseptoria tritici; untreated = 100, rate 75 g/ha): 102.26% | Yield increase versus the untreated (%) (Zymoseptoria tritici; untreated = 100, rate 125 g/ha): 109.14% | Observed % control (O) ([1]; rate 25 g/ha): 58.4% | Observed % control (O) (Ramularia collo-cygni; rate 25 g/ha): 73.9% | Class 1 (%) (Venturia inaequalis [2]; rate 37.5 g/ha): 92.5% | Class 1 (%) (Venturia inaequalis [2]; rate 50 g/ha): 93.5% | Class 2 (%) (Venturia inaequalis [2]; rate 37.5 g/ha): 5.2% | Class 2 (%) (Venturia inaequalis [2]; rate 50 g/ha): 3.3% | Class 3 (%) (Venturia inaequalis [2]; rate 37.5 g/ha): 2.3% | Class 3 (%) (Venturia inaequalis [2]; rate 50 g/ha): 3.3% | Observed % control (O) (Alternaria solani; rate 25 g/ha): 60.6% | Observed % control (O) (Venturia inaequalis [3]; rate 37.5 g/ha): 67.90% | Observed % control (O) (Venturia inaequalis [3]; rate 50 g/ha): 69.40% | Observed % control (O) (Botrytis cinerea; rate 25 g/ha): 62.5%

Fluazinam
Observed % control (O) (Tetranychus urticae; 200 g ai/ha): 27.5% | Observed % control (O) (Tetranychus urticae; 250 g ai/ha): 32.5% | Observed % control (O) (Tetranychus urticae; 300 g ai/ha): 32.5% | Observed % control (O) (Tetranychus urticae; 350 g ai/ha): 37.5% | Observed % control (O) ([4]; 200 g ai/ha): 21.7% | Observed % control (O) ([4]; 250 g ai/ha): 23.6% | Observed % control (O) ([4]; 300 g ai/ha): 24.1% | Observed % control (O) ([4]; 350 g ai/ha): 33.6% | Observed % control (O) ([1]; rate 150 g/ha): 60.8% | Observed % control (O) (Ramularia collo-cygni; rate 150 g/ha): 36.3% | Observed % control (O) (Alternaria solani; rate 150 g/ha): 57.5% | Observed % control (O) (Botrytis cinerea; rate 150 g/ha): 64.4%
